These results are taken from US7273866B2, “2-aryl thiazole derivatives as KCNQ modulators” (Bristol-Myers Squibb Company, priority 2002, dated 2007).

Structures are written as SMILES. pEC50: −log10 of the molar value.

The experiment has as its system KCNQ channels. The experiment is described as follows: Thallium flux assay for KCNQ channel openers. The format is cell-based. Conditions: HEK-293 cells stably transfected with a KCNQ family member. The method in brief: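 HEK-293 lines stably expressing individual KCNQ members, loaded with BTC-AM in chloride-free buffer pH 7.3, compound added (1% DMSO final) before 7.5 mM Tl2SO4 stimulus; fluorescence read 60 s on FLIPR. Minimal active concentration at ≥4 SD above negative controls; EC50 from 10-point logistic fit.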

For `CC(NC(=O)c1sc(-c2ccccc2F)nc1C(F)(F)F)c1cccc(OC(F)(F)F)c1` (centres unmarked) [Example 21, 2-(2-fluorophenyl)-4-(trifluoromethyl)-N-[1-[3-(trifluoromethoxy)phenyl]ethyl]-5-thiazolecarboxamide], for the setting “minimal active concentration: lowest concentration giving signal amplitude >= four standard deviations of negative controls”, the Min. conc. response amounted to 0.3 µM. Where the note is “thallium flux, 10 point concentration series”, the pEC50 is > 7.30.
